# Target: T1, human iGluR4 (Homo sapiens, UniProt P48058)
# T1 construct: expressed in transfected cells; host or cells: HEK293
# Test: Whole-cell voltage clamp electrophysiology of AMPA receptor potentiation in HEK293 cells stably expressing human iGluR4
# Type: cell-based
# Settings: voltage-clamped at −60 mV, 1 mM glutamate, fit to the Hill equation, read-out: activity (EC50, potentiation of current evoked by 1 mM glutamate)
# From the text: HEK293 cells stably expressing human iGluR4 (obtained as described in European Patent Application Publication No. EP-A1-0583917) are used in the electrophysiological characterization of AMPA receptor potentiators. The extracellular recording solution contains (in mM): 140 NaCl, 5 KCl, 10 HEPES, 1 MgCl2, 2 CaCl2, 10 glucose, pH=7.4 with NaOH, 295 mOsm kg-1. The intracellular recording solution contains (in mM): 140 CsCl, 1 MgCl2, 10 HEPES, (N-[2-hydroxyethyl]piperazine-N1-[2-ethanesulfonic acid]) 10 EGTA (ethylene-bis(oxyethylene-nitrilo)tetraacetic acid), pH=7.2 with CsOH, 295 mOsm kg-1. With these solutions, recording pipettes have a resistance of 2-3 MΩ. […] Responses to 1 mM glutamate are then determined in the presence of test compound. […]
# In order to determine the potency of test compounds, the concentration of the test compound, both in the bathing solution and co-applied with glutamate, is increased in half log units until the maximum effect was seen. […] Reversibility of test compound activity is determined by assessing control glutamate 1 mM responses. Once the control responses to the glutamate challenge are re-established, the potentiation of these responses by 100 μM cyclothiazide is determined by its inclusion in both the bathing solution and the glutamate-containing solution. In this manner, the efficacy of the test compound relative to that of cyclothiazide can be determined. […]
# T1 sequence (P48058 21-902): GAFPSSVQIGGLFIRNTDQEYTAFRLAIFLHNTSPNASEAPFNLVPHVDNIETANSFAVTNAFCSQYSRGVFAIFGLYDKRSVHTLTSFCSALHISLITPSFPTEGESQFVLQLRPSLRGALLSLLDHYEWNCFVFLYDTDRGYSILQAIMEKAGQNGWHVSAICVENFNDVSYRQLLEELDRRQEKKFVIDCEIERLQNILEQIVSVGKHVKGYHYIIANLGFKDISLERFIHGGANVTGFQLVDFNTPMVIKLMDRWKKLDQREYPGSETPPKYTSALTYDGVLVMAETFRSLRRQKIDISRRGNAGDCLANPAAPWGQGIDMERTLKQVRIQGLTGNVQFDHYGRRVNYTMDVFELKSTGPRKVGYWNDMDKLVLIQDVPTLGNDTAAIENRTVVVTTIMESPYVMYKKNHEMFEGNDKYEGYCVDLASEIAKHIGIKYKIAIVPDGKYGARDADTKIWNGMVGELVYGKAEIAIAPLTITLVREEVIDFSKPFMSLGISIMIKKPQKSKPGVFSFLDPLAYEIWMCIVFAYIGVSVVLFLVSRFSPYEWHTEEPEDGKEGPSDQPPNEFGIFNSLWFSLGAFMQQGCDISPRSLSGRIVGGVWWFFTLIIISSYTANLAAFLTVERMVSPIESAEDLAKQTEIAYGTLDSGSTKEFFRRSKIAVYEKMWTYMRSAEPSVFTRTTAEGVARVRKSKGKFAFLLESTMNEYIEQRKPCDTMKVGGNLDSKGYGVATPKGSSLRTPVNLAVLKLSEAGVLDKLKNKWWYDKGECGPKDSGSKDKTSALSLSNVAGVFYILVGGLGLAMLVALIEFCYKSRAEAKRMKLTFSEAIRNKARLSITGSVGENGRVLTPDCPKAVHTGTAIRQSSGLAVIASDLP
compound,measurement,value
"CCOc1cc(C(=O)O)ccc1-c1ccc(-c2sccc2NS(=O)(=O)C(C)C)cc1 [Example 1, 2-Ethoxy-4′-[3-(propane-2-sulfonylamino)-thiophen-2-yl]-biphenyl-4-carboxylic acid]",EC50,145 nM
